Measurements from patent publication EP4038059B1, “SUBSTITUTED CARBAZOLE COMPOUNDS” (Bristol-Myers Squibb Company, priority 2019, dated 2021).

Assays:
Assay type in all cases: cell-based
human TLR9 = target: T1, human TLR9 (Homo sapiens, UniProt Q9NR96); test: TLR9 inhibition reporter assay (HEK-Blue SEAP); settings: HEK-Blue cells overexpressing human TLR9, stimulated with ODN2006 5 nM, 22 h incubation
T1 construct: host or cells: HEK-Blue cells
T1 sequence (Q9NR96 26-1032): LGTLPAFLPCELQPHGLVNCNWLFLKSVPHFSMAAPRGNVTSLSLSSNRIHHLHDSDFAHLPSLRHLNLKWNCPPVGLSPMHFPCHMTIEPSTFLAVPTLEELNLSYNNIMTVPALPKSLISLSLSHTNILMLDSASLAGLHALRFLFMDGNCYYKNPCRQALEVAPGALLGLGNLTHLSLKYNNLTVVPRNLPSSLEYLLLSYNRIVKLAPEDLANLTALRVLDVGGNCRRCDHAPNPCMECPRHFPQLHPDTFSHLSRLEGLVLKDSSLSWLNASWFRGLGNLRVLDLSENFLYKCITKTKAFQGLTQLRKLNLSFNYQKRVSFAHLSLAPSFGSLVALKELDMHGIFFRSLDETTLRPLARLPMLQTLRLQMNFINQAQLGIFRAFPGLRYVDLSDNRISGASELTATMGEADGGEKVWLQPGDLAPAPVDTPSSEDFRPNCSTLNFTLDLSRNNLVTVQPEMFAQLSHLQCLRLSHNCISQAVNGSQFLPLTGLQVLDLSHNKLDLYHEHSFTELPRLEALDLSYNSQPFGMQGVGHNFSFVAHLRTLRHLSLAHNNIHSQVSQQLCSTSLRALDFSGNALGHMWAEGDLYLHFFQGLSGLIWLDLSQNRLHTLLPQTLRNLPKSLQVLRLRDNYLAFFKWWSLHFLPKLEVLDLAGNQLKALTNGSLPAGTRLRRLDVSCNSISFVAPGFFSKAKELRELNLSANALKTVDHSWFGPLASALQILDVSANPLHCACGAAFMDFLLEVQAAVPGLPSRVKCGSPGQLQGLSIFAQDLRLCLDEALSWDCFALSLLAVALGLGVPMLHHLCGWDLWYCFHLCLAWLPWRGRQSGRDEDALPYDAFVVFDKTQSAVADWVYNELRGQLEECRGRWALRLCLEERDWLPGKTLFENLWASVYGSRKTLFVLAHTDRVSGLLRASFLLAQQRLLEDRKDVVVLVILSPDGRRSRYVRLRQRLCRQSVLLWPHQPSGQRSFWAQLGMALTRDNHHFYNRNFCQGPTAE
Method: (§1) HEK-Blue™-cells (Invivogen) overexpressing human TLR7, TLR8 or TLR9 receptors were used for screening inhibitors of these receptors using an inducible SEAP (secreted embryonic alkaline phosphatase) reporter gene under the control of the IFN-β minimal promoter fused to five NF-κB and AP-1-binding sites. Briefly, cells are seeded into Greiner 384 well plates (15000 cells per well for TLR7, 20,000 for TLR8 and 25,000 for TLR9) and then treated with test compounds in DMSO to yield a final dose response concentration range of 0.05 nM - 50 µM. After a 30 minute compound pre-treatment at room temperature, the cells are then stimulated with a TLR7 ligand (gardiquimod at a final concentration of 7.5 µM), TLR8 ligand (R848 at a final concentration of 15.9 µM) or TLR9 ligand (ODN2006 at a final concentration of 5 nM) to activate NF-κB and AP-1 which induce the production of SEAP. After a 22 h incubation at 37°C, 5% CO2, SEAP levels are determined with the addition of HEK-Blue™ Detection reagent (Invivogen), a cell culture medium that allows for detection of SEAP, according to manufacturer's specifications. The percent inhibition is determined as the % reduction in the HEK-Blue signal present in wells treated with agonist plus DMSO alone compared to wells treated with a known inhibitor.

human TLR7 = target: T2, human TLR7 (Homo sapiens, UniProt Q9NYK1); test: TLR7 inhibition reporter assay (HEK-Blue SEAP); settings: HEK-Blue cells overexpressing human TLR7, stimulated with gardiquimod 7.5 µM, 22 h incubation
T2 construct: host or cells: HEK-Blue cells
T2 sequence (Q9NYK1 27-1049): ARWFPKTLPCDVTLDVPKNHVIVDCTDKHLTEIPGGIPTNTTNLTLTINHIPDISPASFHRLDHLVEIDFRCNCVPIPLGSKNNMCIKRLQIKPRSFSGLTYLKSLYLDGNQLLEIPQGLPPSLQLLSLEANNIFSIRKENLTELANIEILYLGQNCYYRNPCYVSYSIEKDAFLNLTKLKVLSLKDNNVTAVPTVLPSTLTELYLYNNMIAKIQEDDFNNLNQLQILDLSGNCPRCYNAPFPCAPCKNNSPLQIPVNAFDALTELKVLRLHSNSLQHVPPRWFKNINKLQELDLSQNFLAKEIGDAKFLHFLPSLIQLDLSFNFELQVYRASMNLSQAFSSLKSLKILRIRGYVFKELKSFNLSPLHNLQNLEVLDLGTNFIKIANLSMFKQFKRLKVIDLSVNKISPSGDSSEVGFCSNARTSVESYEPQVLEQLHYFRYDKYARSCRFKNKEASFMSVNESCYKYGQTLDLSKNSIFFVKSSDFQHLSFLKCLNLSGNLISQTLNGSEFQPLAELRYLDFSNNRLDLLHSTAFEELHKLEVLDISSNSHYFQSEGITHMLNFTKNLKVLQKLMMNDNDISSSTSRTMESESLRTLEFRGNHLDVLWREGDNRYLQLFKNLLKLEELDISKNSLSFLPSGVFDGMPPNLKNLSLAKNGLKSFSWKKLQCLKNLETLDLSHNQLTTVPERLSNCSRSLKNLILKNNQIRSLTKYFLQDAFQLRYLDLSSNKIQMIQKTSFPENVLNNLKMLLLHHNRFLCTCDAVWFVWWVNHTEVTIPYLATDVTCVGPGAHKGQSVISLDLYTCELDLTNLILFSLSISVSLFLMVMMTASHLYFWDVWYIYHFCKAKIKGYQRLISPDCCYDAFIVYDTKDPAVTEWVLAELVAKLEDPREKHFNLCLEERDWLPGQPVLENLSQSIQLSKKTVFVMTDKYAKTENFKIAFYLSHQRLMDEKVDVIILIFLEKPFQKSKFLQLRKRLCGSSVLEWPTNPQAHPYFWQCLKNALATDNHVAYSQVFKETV
Method: as §1

human TLR8 = target: T3, human TLR8 (Homo sapiens, UniProt Q9NR97); test: TLR8 inhibition reporter assay (HEK-Blue SEAP); settings: HEK-Blue cells overexpressing human TLR8, stimulated with R848 15.9 µM, 22 h incubation
T3 construct: host or cells: HEK-Blue cells
T3 sequence (Q9NR97 27-1041): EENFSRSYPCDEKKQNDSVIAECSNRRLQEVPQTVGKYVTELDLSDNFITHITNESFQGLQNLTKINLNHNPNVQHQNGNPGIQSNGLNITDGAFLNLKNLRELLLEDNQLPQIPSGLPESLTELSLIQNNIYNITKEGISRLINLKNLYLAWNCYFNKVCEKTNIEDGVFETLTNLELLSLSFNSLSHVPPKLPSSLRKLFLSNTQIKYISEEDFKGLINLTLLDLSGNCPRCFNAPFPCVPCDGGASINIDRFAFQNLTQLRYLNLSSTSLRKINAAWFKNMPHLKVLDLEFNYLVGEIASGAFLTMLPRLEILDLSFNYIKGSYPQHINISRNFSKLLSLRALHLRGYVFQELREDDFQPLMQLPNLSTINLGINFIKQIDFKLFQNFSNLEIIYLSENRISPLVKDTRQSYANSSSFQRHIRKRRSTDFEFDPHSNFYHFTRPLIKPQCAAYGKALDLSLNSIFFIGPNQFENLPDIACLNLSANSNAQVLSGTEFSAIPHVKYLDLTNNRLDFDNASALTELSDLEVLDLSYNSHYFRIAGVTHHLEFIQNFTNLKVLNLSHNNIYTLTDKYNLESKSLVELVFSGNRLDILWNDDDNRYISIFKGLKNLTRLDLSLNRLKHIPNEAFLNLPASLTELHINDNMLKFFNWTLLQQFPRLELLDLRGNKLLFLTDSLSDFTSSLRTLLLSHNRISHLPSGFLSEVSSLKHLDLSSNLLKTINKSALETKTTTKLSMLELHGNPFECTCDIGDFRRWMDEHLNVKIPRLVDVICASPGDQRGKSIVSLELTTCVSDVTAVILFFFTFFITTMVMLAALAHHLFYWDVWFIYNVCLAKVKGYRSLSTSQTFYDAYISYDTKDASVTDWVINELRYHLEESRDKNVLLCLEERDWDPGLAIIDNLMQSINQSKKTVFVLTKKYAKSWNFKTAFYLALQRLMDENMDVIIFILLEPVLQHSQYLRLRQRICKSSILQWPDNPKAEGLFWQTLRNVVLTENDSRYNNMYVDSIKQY
Method: as §1

| Structure (SMILES) | IC50 (human TLR9) | IC50 (human TLR7) | IC50 (human TLR8) |
| --- | --- | --- | --- |
| Cc1noc(C)c1-c1ccc2c(c1)[nH]c1ccc(C3CCNCC3)cc12 [Example 1, 3,5-dimethyl-4-(6-(piperidin-4-yl)-9H-carbazol-2-yl)isoxazole] | 1060 nM | 651 nM | 209 nM |
| Cc1cc2c(cc1-c1cc(C)c3ncnn3c1)[nH]c1ccc(C3CCN(CC(C)(C)O)CC3)cc12 [Example 22] | 342 nM | 1.6 nM | 0.7 nM |
